The values that follow come from PubChem BioAssay AID1996.

The term kinetic solubility denotes solubility judged after dilution from a stock solution rather than from solid.

Each structure is given as a SMILES string. Values after ≈ are worked out from the molar mass of the structure shown.

The conditions of the series: buffer; pH 7.4; 200.0 µM.
As for `Cc1ccc(S(=O)(=O)N2CCN(C(=O)CCC(=O)Nc3ccc(F)cc3F)CC2)cc1`, the kinetic solubility was greater than 67.7 µg/mL.
With `O=C(O)c1ccccc1/C=N/NC(=S)NCc1ccccc1`, the kinetic solubility was greater than 47 µg/mL.
With `Cc1c(C(=O)OCC(=O)N2CCN(c3ccccc3)CC2)oc2ccccc12`, the kinetic solubility stood at 4.5 µg/mL (≈ 11.9 µM).
Regarding `Cc1cc(C)nc(Sc2ncnc(N)c2[N+](=O)[O-])n1`, the kinetic solubility is greater than 41.7 µg/mL.
In the case of `CNC(=O)c1cc2cc(Cc3ccccc3Cl)ccc2oc1=O`, the solubility (kinetic) is less than 0.7 µg/mL.
`CC1(C(=O)NC2CCCCC2)CCC(=O)N1Cc1ccc2c(c1)OCO2` (stereo unspecified) showed a kinetic solubility of 44.4 µg/mL (≈ 124 µM).
Take `O=C(O)c1ccc(-n2c(/C=C/c3ccccc3)nc3ccccc3c2=O)cc1`: the kinetic solubility was greater than 55.3 µg/mL.
The result for `CCNc1nc(-c2cc(C)n(Cc3ccco3)c2C)cs1` reads 5.2 µg/mL (≈ 17.3 µM).
The result for `CCOC(=O)c1ccc(NS(=O)(=O)c2cn(C)cn2)cc1` reads greater than 46.4 µg/mL; that for `CCOc1ccc(C(=O)NCC(=O)N2CCN(Cc3ccccc3)CC2)cc1`, greater than 57.2 µg/mL.
Take `CCOc1cc(C(=O)OCC(=O)Nc2cccc(S(=O)(=O)NC3=NCCCCC3)c2)cc(OCC)c1OCC`: the kinetic solubility is 24.2 µg/mL (≈ 43.1 µM).
Molecule `COc1cc2c(cc1OC)CN(C(=O)CCNC(=O)c1ccccc1Cl)CC2` displayed a solubility (kinetic) greater than 60.4 µg/mL.
`COc1ccc(OCC(=O)c2c[nH]c3ccccc23)cc1` had a kinetic solubility of less than 0.6 µg/mL.
In the case of `CN(CC(=O)Nc1cccc(F)c1)C(=O)CC1CC2CCC1C2` (stereo unspecified) it was 4 µg/mL (≈ 12.6 µM); in that of `Oc1ccc(-c2nccc(-c3ccc(Br)cc3)n2)cc1`, 0.4 µg/mL (≈ 1.22 µM).
In the case of `CN(C)CC/C=C1/c2ccccc2CS(=O)(=O)c2ccccc21` it was 47.6 µg/mL (≈ 145 µM); in that of `O=C(NCCN1CCCCC1)Nc1ccc(Br)cc1`, 48.4 µg/mL (≈ 148 µM).
The molecule `CCOP(=O)(c1ccc(N(C)C)cc1)C(O)c1cccnc1` (stereo unspecified) yielded a solubility (kinetic) greater than 48 µg/mL.
As to `CCc1ccccc1NC(=S)N(CCOC)C(C)c1ccco1` (stereo unspecified), the solubility (kinetic) worked out at 35.1 µg/mL (≈ 106 µM).
`O=C1OCc2ccc(NC(=O)c3c(F)cccc3Cl)cc21` displayed a kinetic solubility of 2 µg/mL (≈ 6.54 µM).
As for `Cc1ccc(Cn2ncc(C)c2N)o1`, the kinetic solubility was greater than 28.7 µg/mL.
`CNC(=O)Cn1c(C)cc(=O)c2cccc(OC)c21` had a solubility (kinetic) greater than 39 µg/mL.
Turning to `Cc1ccc(C)c(Nc2nc(-c3ccncc3)nc3ccccc23)c1`, the solubility (kinetic) was less than 0.2 µg/mL.
The molecule `N#CC(C#N)=CNc1cccnc1` came in with a solubility (kinetic) greater than 25.5 µg/mL.
With `CN(C)C(=O)c1c2c(nc3ccccc13)CCCC2`, the solubility (kinetic) turned out to be 32.2 µg/mL (≈ 127 µM).
As for `CC1Oc2ccccc2N(Cc2ccc(F)cc2)C1=O` (stereo unspecified), the kinetic solubility stood at 23.4 µg/mL (≈ 86.3 µM).
`CC(C)CC(C(=O)Nc1ccccc1)N1C(=O)C2C3C=CC(C3)C2C1=O` (stereo unspecified) gave a solubility (kinetic) greater than 52.9 µg/mL.
Regarding `N#C/C(=C\c1ccc2c(c1)OCO2)C(=O)NCc1ccco1`, the solubility (kinetic) amounted to 0.6 µg/mL (≈ 2.03 µM).
The result for `CCOC(=O)C1CCN(C(=O)COC(=O)/C=C/c2cccc(OC)c2OC)CC1` reads 60.5 µg/mL (≈ 149 µM); that for `NS(=O)(=O)c1ccc(CCNC(=O)c2cnccn2)cc1`, greater than 46 µg/mL.
As for `CCCc1nnc(NC(=O)C2CC(=O)N(CCc3ccc(F)cc3)C2)s1` (stereo unspecified), the kinetic solubility was greater than 56.5 µg/mL.
The molecule `O=[N+]([O-])c1cccnc1NCCc1c[nH]c2ccccc12` returned a kinetic solubility of 0.3 µg/mL (≈ 1.06 µM).
In the case of `CC1CC(C)CN(C(=O)Cc2c(C(=O)O)[nH]c3ccc(Cl)cc23)C1` (stereo unspecified) it was greater than 52.3 µg/mL.
For `CCN(C(=O)CSc1nnc(-c2ccc(OC)cc2)n1C(C)C)C1CCS(=O)(=O)C1` (stereo unspecified), the solubility (kinetic) is greater than 67.9 µg/mL.
`O=C(O)CCN1C(=O)c2ccc(NC(=O)CCc3ccccc3)cc2C1=O`: the solubility (kinetic) is greater than 55 µg/mL.
Molecule `COc1ccc(C(=O)NCCCCc2ccccc2)cc1` yielded a solubility (kinetic) of 2.9 µg/mL (≈ 10.2 µM).
For the molecule `CC(=O)Nc1ccc(CN2CCN(C3CCCC3)C(CCO)C2)cc1` (stereo unspecified), the solubility (kinetic) is greater than 51.8 µg/mL.
`O=c1oc2ccccc2c(Nc2ccccc2)c1CN1CCCCC1` registered a kinetic solubility of 44.1 µg/mL (≈ 132 µM).
`COc1ccc(CNC(=O)CNC(=O)c2ccc(Br)o2)cc1OC`: the solubility (kinetic) was determined as 53.1 µg/mL (≈ 134 µM).
In the case of `Cc1ccc(C(=O)OCC(=O)NC2CCCCC2)o1` it was greater than 39.8 µg/mL.
On to `Cc1ccccc1NC(=O)COc1ccc2c(c1)OC(C)(C)CC2=O`, for which the kinetic solubility was less than 0.7 µg/mL.
For `CC(C)C(CCNC1CCN(C)CC1)c1ccc(Cl)cc1` (stereo unspecified), the kinetic solubility was found to be 33.5 µg/mL (≈ 108 µM).
`COc1ccc2nc(NC(=O)c3ccc(F)cc3)sc2c1` returned a solubility (kinetic) of less than 0.3 µg/mL.
In the case of `COc1ccc(NS(=O)(=O)c2ccc3c(c2)CCC(=O)N3)cc1O` it was greater than 52.3 µg/mL; in that of `CCC1NC(=O)c2ccccc2N1c1cccc(Cl)c1` (stereo unspecified), 29.8 µg/mL (≈ 104 µM); in that of `C=CCNc1nc(N)c([N+](=O)[O-])c(NC2CCCCC2)n1`, 0.7 µg/mL (≈ 2.39 µM).
`COc1ccc(-c2nc3ccc(C)cc3c(=O)o2)cc1OC`: the solubility (kinetic) is less than 0.6 µg/mL.
With `Cc1cnc(C(=O)OCC(=O)c2c[nH]c3ccccc23)cn1`, the solubility (kinetic) is 13.7 µg/mL (≈ 46.4 µM).
The result for `O=Cc1ccc(Sc2ncccn2)o1` reads 24.2 µg/mL (≈ 117 µM); that for `NC(=O)C(Cc1ccccc1)NC(=O)C12CC3CC(CC(C3)C1)C2` (stereo unspecified), 48.1 µg/mL (≈ 147 µM).
In the case of `O=C(CNCCO)Nc1ccc(F)c(Cl)c1` it was greater than 37 µg/mL.
